Measured values from publication PMC4914440 (Pharmacological research, 2016).

How the values were obtained:
h5-HT2A = h5-HT2A (Homo sapiens, UniProt P28223); conditions: 10 μM efavirenz; cited from earlier work
5-HT2C receptor = biological target: T1, 5-HT2C receptor (Homo sapiens, UniProt P28335); conditions: serum free
T1 sequence (P28335 33-458): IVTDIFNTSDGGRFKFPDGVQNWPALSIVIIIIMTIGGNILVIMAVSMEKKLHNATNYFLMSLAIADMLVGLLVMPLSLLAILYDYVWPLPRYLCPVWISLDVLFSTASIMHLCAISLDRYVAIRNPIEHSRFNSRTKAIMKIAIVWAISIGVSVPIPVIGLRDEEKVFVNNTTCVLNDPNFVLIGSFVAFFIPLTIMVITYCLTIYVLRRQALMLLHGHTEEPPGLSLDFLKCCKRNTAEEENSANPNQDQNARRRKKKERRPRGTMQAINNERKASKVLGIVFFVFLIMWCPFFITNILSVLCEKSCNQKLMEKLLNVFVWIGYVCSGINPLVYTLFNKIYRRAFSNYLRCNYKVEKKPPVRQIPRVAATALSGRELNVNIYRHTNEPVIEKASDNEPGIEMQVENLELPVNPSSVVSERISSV

[1] = within 1 hr of i.p. dose of 15 mg/kg; cited from earlier work
5-HT3A receptors = biological target: T2, 5-HT3A receptors (Mus musculus, UniProt P23979); assay: Whole cell electrophysiology, 5-HT-induced currents, HEK293 cells; conditions: for reversibility of inhibition: 2–3 min washout, data not shown
T2 sequence (P23979 24-489): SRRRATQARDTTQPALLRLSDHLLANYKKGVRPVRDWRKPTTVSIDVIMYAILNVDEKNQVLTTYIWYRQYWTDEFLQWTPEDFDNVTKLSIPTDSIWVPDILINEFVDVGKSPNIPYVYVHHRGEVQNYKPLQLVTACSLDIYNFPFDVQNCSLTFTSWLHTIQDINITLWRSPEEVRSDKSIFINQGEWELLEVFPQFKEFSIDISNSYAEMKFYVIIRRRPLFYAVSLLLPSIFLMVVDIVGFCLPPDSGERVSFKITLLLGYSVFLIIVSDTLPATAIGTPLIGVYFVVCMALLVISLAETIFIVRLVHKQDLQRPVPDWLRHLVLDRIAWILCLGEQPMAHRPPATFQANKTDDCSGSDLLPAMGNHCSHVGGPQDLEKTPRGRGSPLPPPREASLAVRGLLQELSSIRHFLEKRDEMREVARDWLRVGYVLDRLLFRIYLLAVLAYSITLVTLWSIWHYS

m5-HT3 (5-HT3A receptor) = m5-HT3 (5-HT3A receptor) (Mus musculus, UniProt P23979); assay: Radioligand displacement by a fixed drug concentration, [3H]BRL-43694; conditions: 10 μM efavirenz

Sequence of h5-HT2A (P28223 whole entry): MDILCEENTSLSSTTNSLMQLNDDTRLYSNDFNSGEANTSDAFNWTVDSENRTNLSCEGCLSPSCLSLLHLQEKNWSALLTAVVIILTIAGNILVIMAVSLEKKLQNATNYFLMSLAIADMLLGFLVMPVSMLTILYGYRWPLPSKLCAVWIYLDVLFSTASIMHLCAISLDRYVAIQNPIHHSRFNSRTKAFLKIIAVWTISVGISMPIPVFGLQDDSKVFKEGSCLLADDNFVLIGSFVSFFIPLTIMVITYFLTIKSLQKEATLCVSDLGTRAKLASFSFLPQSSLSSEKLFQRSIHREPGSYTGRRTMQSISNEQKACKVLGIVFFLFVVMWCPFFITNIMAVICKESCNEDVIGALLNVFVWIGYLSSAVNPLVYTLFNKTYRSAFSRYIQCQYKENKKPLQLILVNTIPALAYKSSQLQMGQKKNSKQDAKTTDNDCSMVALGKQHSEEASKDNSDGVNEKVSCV

**Q.** Which “displacement of specifically bound radioligand” value (h5-HT2A) does the source give for O=C1Nc2ccc(Cl)cc2[C@@](C#CC2CC2)(C(F)(F)F)O1 [efavirenz, (4S)-6-chloro-4-(2-cyclopropylethynyl)-4-(trifluoromethyl)-2,4-dihydro-1H-3,1-benzoxazin-2-one] here?
**A.** Its value is no less than 75%.

**Q.** And the “concentration completely suppressing the 5-HT agonist effect” value (5-HT2C receptor; 0.03 nM 5-HT (EC50))?
**A.** Its value is no less than 60 µM.

**Q.** What about the “concentration inhibiting the 5-HT agonist effect” value (5-HT2C receptor; 0.03 nM 5-HT (EC50)) of the same molecule?
**A.** The value was no less than 10 µM.

**Q.** And the “concentration with no significant effect on 5-HT responses” value (5-HT2C receptor; 0.03 nM 5-HT (EC50))?
**A.** Its value is “up to 3 μM”.

**Q.** What about the agonist activity (5-HT2C receptor) of the same molecule?
**A.** The agonist activity was “did not have any agonist activity”.

**Q.** What about the “brain levels relative to plasma levels” value [1] of the same molecule?
**A.** Its value is “exceed 4.6 times”.

**Q.** What about the IC50 (5-HT3A receptors) of the same molecule?
**A.** Its IC50 is 4.9 ± 0.7 µM.

**Q.** And the Hill coefficient (5-HT3A receptors; 0.6 μM 5-HT (EC30))?
**A.** Its Hill coefficient is 1.2 ± 0.19.

**Q.** What about the effect alone (5-HT3A receptors; 10 μM, n = 5, data not shown) of the same molecule?
**A.** The effect alone was “had no effect”.

**Q.** What about the “inhibition of steady-state currents” value (5-HT3A receptors; 30 μM) of the same molecule?
**A.** Its value is “complete inhibition”.

**Q.** And the reversibility of inhibition (5-HT3A receptors; 30 μM)?
**A.** Its reversibility of inhibition is “partially recovered”.

**Q.** And the reversibility of inhibition (5-HT3A receptors; up to 10 μM)?
**A.** Its reversibility of inhibition is “completely reversible”.

**Q.** What about the “displacement of [3H]-granisetron binding” value (m5-HT3 (5-HT3A receptor)) of the same molecule?
**A.** Its value is “did not significantly displace”.
